Test results: patent US8962558B2, “Methods for reducing GnRH-positive tumor cell proliferation using the GnRH antagonist IN3” (priority 1997, dated 2015)
Square brackets hold non-standard residues; d marks the D form. Peptide text beside a SMILES is read from it. dPhe(4-Cl) = N[C@H](Cc1ccc(Cl)cc1)C(=O)O; d2Nal = N[C@H](Cc1ccc2ccccc2c1)C(=O)O; dCit = NC(=O)NCCC[C@@H](N)C(=O)O; d3Pal = N[C@H](Cc1cccnc1)C(=O)O

Experiments:
[1] = tested on: human glioblastoma cell lines U-87MG or U-373MG, Kaposi sarcoma cell lines KSY-1 or KS-SLK, malignant melanoma cell line MV3 or BLM, medulloblastoma cell line …; experiment: Proliferation assay on cell cultures (Example 3); assay type: cell-based; conditions: for anti-proliferative effects in tumor cells: cell lines of Example 3 treated with the substance; for anti-proliferative effect compared with Cetrorelix only: given additionally as a second GnRH antagonist
Procedure: A human cell line, such as the well known human glioblastoma cell lines U-87MG or U-373MG (Pinski et al., supra), or a human cell line such as the well known Kaposi sarcoma cell lines KSY-1 or KS-SLK (Parkash et al., 1996, New England Journal of Medicine, 335, 17, 1261-1269), or a human cell line such as the well known human malignant melanoma cell line MV3 or BLM (Goldbrunner, R. H., et al., 1996, Anticancer Research 16 (6B), 3679-87), or a human medulloblastoma cell line such as the well known cell line Daoy or D283 MED (Stockhammer et al., 1995, J. Neurosurgery, 83, 672-681), or human meningeoma cell cultures (Boyle-Wash, E., et al., 1995, Journal of Endocrinology, 145, 155-161), are cultured as previously described for the above-mentioned cell lines and then treated with a concentration of the GnRH agonist Triptorelin®, GnRH antagonist SB-75 (Cetrorelix®) or GnRH antagonist Ramorelix®. […]
In another embodiment, the above-mentioned cell lines are treated as described by Emons, G., et al., 1993, supra, and Irmer, G., 1995, supra, with a concentration of the GnRH peptide antagonist Ac-D-Nal(2)-D-4-ClPhe-D-Pal-Ser-1-MePal-D-IsopropylLys-Leu-IsopropylLys-Pro-D-AlaNH2 (also known as Ant 135-25; the Mepal portion is known as 1-Methyl-3-[3′-pyridyl]-alanine), Teverelix (also known as Antarelix®), Cetrorelix (also known as Cetrotide®), Abarelix (also known as Plenaxis®), D-63153 (also known as Ozarelix®), acyline, azaline B, antide (also known as Iturelix®), Degarelix (FE200486), Ganirelix, Nal-Glu, Orntide (also known as Ornirelix®), Elagolix, or with antagonist peptidomimetic ((2S)-2-[5-[2-(2-azabicyclo[2,2,2]oct-2-yl)-1,1-dimethyl-2-oxoethyl]-2-(3,5-dimethylphenyl)-1H-indol-3-yl]-N-(2-pyridin-4-ylethyl-)propan-1-amine (also known as “IN3”).
In another embodiment, the cell lines used above were each additionally treated with a second GnRH antagonist, namely one of the GnRH antagonists Cetrorelix®, Ant 135-25, IN3, degarelix, Antarelix®, Antide®, and Ramorelix® or alternatively with one of the GnRH antagonists that have been disclosed in U.S. Pat. Nos. 6,939,88, 6,200,957, 5,296,468, 4,851,385, 7,361,633, 7,288,517, WO/2009/106597 or PCT/EP2009/052326, U.S. Pat. Nos. 5,480,969, 5,198,533, or UK Patent GB 2 246782 B, wherein these additional treatment procedures were carried out in a manner similar to those reported in Emons et al., supra, using SB 75 (Cetrorelix®). […]

Glioblastoma multiforme = experiment: Phase I study with Buserelin (Example 5); assay type: in vivo, human; conditions: intravenous or intranasal, permanent medication
Procedure: Patients with non-resectable Glioblastoma multiforme following microsurgical resection and/or after external conventional radiotherapy and/or brachytherapy; or patients with a diffusely, intraaxially growing brain tumor, multifocal tumor spreading or presence of a gliomatosis cerebri, respectively; a tumor volume of more than 65 ml; or a minimal tumor diameter of more than 5 cm, were each treated with the GnRH agonist Buserelin, which was administered intravenously or alternatively by intranasal application as a permanent medication as described by Klijn, J. G. M., et al., 1982, The Lancet, May 19, […].

[2] = tested on: malignant gliomas U-87MG and U-373MG; experiment: In vivo study with tumor-implanted nude mice (Example 4); conditions: daily dosages
Procedure: An effect of the treatment of tumor-implanted nude mice (Pinski et al., supra) each with one of the GnRH agonists Buserelin, Triptorelin, Goserelin, and Leuprorelin and each with one of the GnRH antagonists Cetrorelix® (SB-75), Antarelix®, Antide®, and Ramorelix® on the growth of malignant gliomas U-87MG and U-373MG was carried out using daily dosages and controls in nude mice using analysis techniques described for the determination of the efficacy of similar peptides in Pinski et al., supra.

U-87MG cells = assay type: cell-based, human
Procedure: U-87MG cells were plated at a density of 1400 cells/cm^2 in […] in standard culture medium. Cells were allowed to attach and start growing for 3 days; the seeding media were then changed to experimental media. Cells were treated for 7 days with ZOLADEX® (10^−10-10^−6 M); medium was changed every two days. Following treatment, cells were collected and counted by hemocytometer. Data obtained from three independent experiments were analyzed according to the Dunnett's test after one-way ANOVA.

[3] = tested on: small cell lung carcinoma cell lines NCI-H1688, NCI-H1417, NCI-H1672, NCI-H1836, DMS-79, DM-553, DMS-114, SW-1271, NCI-H2227, NCI-HI1963, SHP-77 and H-69 AR; experiment: Proliferation assay on small cell lung carcinoma cell lines (Example 3); assay type: cell-based, human; conditions: small cell lung carcinoma cell lines treated with the substance
Procedure: In another embodiment, the small cell lung carcinoma cell lines NCI-H1688, NCI-H1417, NCI-H1672, NCI-H1836, DMS-79, DM-553, DMS-114, SW-1271, NCI-H2227, NCI-HI1963 and SHP-77 in addition to the multidrug-resistant small cell lung carcinoma cell line H-69 AR, are cultured as described above and then treated as described by Emons, G., et al., 1993, supra, and Irmer, G., 1995, supra, with various concentrations of the GnRH agonists (D-Lys6)-GnRH, Lutrelin, Histrelin, Nafarelin, Azagly-Nafarelin, Deslorelin, Cystorelin, Decapeptyl, Gonadorelin, GnRH, D-Lys(6)-GnRH II, Lamprey GnRH II, (D-Lys6)-Lamprey GnRH, (D-Lys6)-Lamprey GnRH II and Lamprey GnRH III.
In another embodiment, the small cell lung carcinoma cell lines NCI-H1688, NCI-H1417, NCI-H1672, NCI-H1836, DMS-79, DM-553, DMS-114, SW-1271, NCI-H2227, NCI-HI1963 and SHP-77 in addition to the multidrug-resistant small cell lung carcinoma cell line H-69 AR, are cultured as described above for the above-mentioned cell lines, and then treated as described by Emons, G., et al., 1993, supra, and Irmer, G., 1995, supra, with a concentration of the GnRH antagonist Cetrorelix (also known as Cetrotide®) or with a GnRH peptide antagonist Ac-D-Nal(2)-D-4-ClPhe-D-Pal-Ser-1-MePal-D-IsopropylLys-Leu-IsopropylLys-Pro-D-AlaNH2 wherein Mepal is 1-Methyl-3-[3′-pyridyl]-alanine or Ant 135-25 (also known as Ac-D-Nal(2)-D-4-Cl-Phe-D-Pal-Ser-1-MePal-D-IsopropylLys-Leu-IsopropylLys-Pro-D-AlaNH2), Teverelix (also known as Antarelix®), Cetrorelix (also known as Cetrotide®), Abarelix (also known as Plenaxis®), D-63153 (also known as Ozarelix®), acyline, azaline B, antide (also known as Iturelix®), Degarelix (FE200486), Ganirelix, Nal-Glu, Orntide (also known as Ornirelix®) or with antagonist peptidomimetic ((2S)-2-[5-[2-(2-azabicyclo[2,2,2]oct-2-yl)-1,1-dimethyl-2-oxoethyl]-2-(3,5-dimethylphenyl)-1H-indol-3-yl]-N-(2-pyridin-4-ylethyl-)propan-1-amine (also known as “IN3”).

[4] = tested on: human melanoma cell line MV3; experiment: Proliferation assay using the human malignant melanoma cell line MV3; assay type: cell-based
Procedure: The human melanoma cell line MV3 was cultured (in long-term culture in RPMI medium (Gibco Co.) with 1% Penstrep and 10% of heat-inactivated fetal calf serum). The proliferation assay was carried out with 6×10^2 cells per well in 96 well plates. First, the cells were removed from the culture flask with a […] and then washed in standard PBS solution. Following centrifugation for 10 minutes (1200 g) the supernatant was discarded and the pellet resuspended in 1 ml medium. An aliquot of 20 μl of the cells was diluted with trypan blue to obtain an 1:20 dilution. Trypan blue stains the necrotic cells. Then counting was performed in a Neubauer counting chamber. Evaluation was performed by daily determination of 4 values starting at day 0 and multiplying the mean values of the cell counts×10^4× dilution factor 20 to obtain the cell count. During the 5 days, the measurement was performed 4× daily in a Biomec spectrophotometer.
The method for determination of tumor cell proliferation is described in Lü, H. Q., et al., 1996, Journal of Cancer Research and Clinical Oncology, 122, 335-342.
The cell line was treated with (Gly-OH10)-LHRH, the LHRH hormone (FIG. 3) (Sigma Chemical Co., No. L8008) or Triptorelin, an LHRH agonist (FIG. 2) (Sigma Chemical Co., No. L9761) or Antide®, a LHRH antagonist (FIG. 1) (Sigma Chemical Co., No. A8802).
Using concentrations of 10^−4 M, 10^−5 M, and 10^−6 M, with the medium serving as a negative control from day 4 on, the following results were obtained: […]

| Compound | anti-proliferative effects in tumor cells [1] | growth of malignant gliomas [2] | anti-proliferative effect compared with Cetrorelix only [1] | anti-proliferative effects in tumor cells [3] | also measured |
| --- | --- | --- | --- | --- | --- |
| CCNC(=O)[C@@H]1CCCN1C(=O)[C@H](CCCNC(=N)N)NC(=O)[C@H](CC(C)C)NC(=O)[C@@H](COC(C)(C)C)NC(=O)[C@H](Cc1ccc(O)cc1)NC(=O)[C@H](CO)NC(=O)[C@H](Cc1c[nH]c2ccccc12)NC(=O)[C@H](Cc1cnc[nH]1)NC(=O)[C@@H]1CCC(=O)N1 [Buserelin] | Significant anti-proliferative effects | Significant growth-inhibiting effects |  |  | recidivation-free survival (Glioblastoma multiforme): longer than that described following Tamoxifen treatment of glioma |
| CC(=O)N[C@H](Cc1ccc2ccccc2c1)C(=O)N[C@H](Cc1ccc(Cl)cc1)C(=O)N[C@H](Cc1cccnc1)C(=O)N[C@@H](CO)C(=O)N[C@@H](Cc1ccc(O)cc1)C(=O)N[C@H](CCCNC(N)=O)C(=O)N[C@@H](CC(C)C)C(=O)N[C@@H](CCCNC(=N)N)C(=O)N1CCC[C@H]1C(=O)N[C@H](C)C(N)=O [Cetrorelix®] (Ac-[d2Nal][dPhe(4-Cl)][d3Pal]SY[dCit]LRP[dA]-NH2) | Significant anti-proliferative effects | Significant growth-inhibiting effects | significantly stronger anti-proliferative effect | Significant anti-proliferative effects | inhibition of proliferation compared to controls (U-87MG cells; 10^−5 M): 30%; decrease of proliferation (U-87MG cells; 10^−6 M): 28% |
| CCNC(=O)[C@@H]1CCCN1C(=O)[C@H](CCCNC(=N)N)NC(=O)[C@H](CC(C)C)NC(=O)[C@@H](CC(C)C)NC(=O)[C@H](Cc1ccc(O)cc1)NC(=O)[C@H](CO)NC(=O)[C@H](Cc1c[nH]c2ccccc12)NC(=O)[C@H](Cc1c[nH]cn1)NC(=O)[C@@H]1CCC(=O)N1 [LEUPRORELIN®] | Significant anti-proliferative effects | Significant growth-inhibiting effects |  |  |  |
| (Gly-OH10)-LHRH (QHWSYGLRPG; Gonadoliberin-1 C-terminal free acid; UniProt P01148 24-33, looked up) [LHRH hormone, the LHRH hormone (Sigma Chemical Co., No. L8008)] |  |  |  |  | function of the LHRH hormone on MV3 growth in vitro [4]: positive growth factor |
| Ac-D-Nal(2)-D-4-ClPhe-D-Pal-Ser-1-MePal-D-IsopropylLys-Leu-IsopropylLys-Pro-D-AlaNH2 [Ant 135-25] | Significant anti-proliferative effects |  | significantly stronger anti-proliferative effect | Significant anti-proliferative effects |  |
| Antarelix® | Significant anti-proliferative effects | Significant growth-inhibiting effects | significantly stronger anti-proliferative effect | Significant anti-proliferative effects |  |
| Antide® | Significant anti-proliferative effects | Significant growth-inhibiting effects | significantly stronger anti-proliferative effect | Significant anti-proliferative effects | inhibition of proliferation ([4]; 10^−4 M, from day 4 on): 15%; inhibition of proliferation ([4]; 10^−5 M, from day 4 on): 35%; inhibition of proliferation ([4]; 10^−6 M): no inhibition; stimulation of the growth ([4]; 10^−6 M): 40% |
| Nal-Glu | Significant anti-proliferative effects |  |  | Significant anti-proliferative effects |  |
